Where a name gives a salt, the structure may show the parent alone. Read-outs that look alike come from different tables or passages of the source.

Assay [1] has as its system apomorphineinduced vomiting. Briefly: inhibition of apomorphine-induced vomiting in the dog (oral). The format is in vivo. The settings on record: Canis lupus familiaris. The text has this:
| ^(b) Approximate oral ED50 value for inhibition of | apomorphineinduced gnawing behaviour in the rat (mg kg^-1) and | vomiting in the dog (μg kg^-1) | ^(b) Approximate oral ED50 value for inhibition of | apomorphineinduced gnawing behaviour in the rat (mg kg^-1) and | vomiting in the dog (μg kg^-1)

In assay [2] the test system is apomorphineinduced gnawing behaviour. Briefly: inhibition of apomorphine-induced gnawing behaviour in the rat (oral). The format is in vivo. The text has this: | ^(b) Approximate oral ED50 value for inhibition of | apomorphineinduced gnawing behaviour in the rat (mg kg^-1) and | ^(b) Approximate oral ED50 value for inhibition of | apomorphineinduced gnawing behaviour in the rat (mg kg^-1) and […]

For assay [3], the target named is T1, dopamine sensitive adenylate cyclase of rat straitum (Rattus norvegicus, UniProt P18901).
T1 construct: adenylate cyclase of rat straitum; from tissue; host or cells: rat striatum
T1 sequence (P18901 whole entry): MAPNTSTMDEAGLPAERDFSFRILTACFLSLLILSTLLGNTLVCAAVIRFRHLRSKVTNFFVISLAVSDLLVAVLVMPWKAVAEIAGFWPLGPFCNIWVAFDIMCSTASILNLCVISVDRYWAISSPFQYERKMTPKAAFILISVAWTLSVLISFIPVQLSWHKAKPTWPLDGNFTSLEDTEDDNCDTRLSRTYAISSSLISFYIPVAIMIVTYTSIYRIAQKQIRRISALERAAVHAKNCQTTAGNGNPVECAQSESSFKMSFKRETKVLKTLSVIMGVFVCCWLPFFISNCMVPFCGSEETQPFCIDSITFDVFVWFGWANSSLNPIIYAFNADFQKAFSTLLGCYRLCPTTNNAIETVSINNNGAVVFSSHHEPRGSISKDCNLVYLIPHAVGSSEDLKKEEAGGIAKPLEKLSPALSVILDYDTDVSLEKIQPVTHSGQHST
Description: inhibition of dopamine sensitive adenylate cyclase of rat striatum. The format is biochemical.

In assay [4] the target is T2, [3H]haloperidol binding, rat striatal membranes (Rattus norvegicus, UniProt P61169).
T2 construct: striatal and limbic forebrain membranes; from tissue; host or cells: rat striatal membranes
T2 sequence (P61169 whole entry): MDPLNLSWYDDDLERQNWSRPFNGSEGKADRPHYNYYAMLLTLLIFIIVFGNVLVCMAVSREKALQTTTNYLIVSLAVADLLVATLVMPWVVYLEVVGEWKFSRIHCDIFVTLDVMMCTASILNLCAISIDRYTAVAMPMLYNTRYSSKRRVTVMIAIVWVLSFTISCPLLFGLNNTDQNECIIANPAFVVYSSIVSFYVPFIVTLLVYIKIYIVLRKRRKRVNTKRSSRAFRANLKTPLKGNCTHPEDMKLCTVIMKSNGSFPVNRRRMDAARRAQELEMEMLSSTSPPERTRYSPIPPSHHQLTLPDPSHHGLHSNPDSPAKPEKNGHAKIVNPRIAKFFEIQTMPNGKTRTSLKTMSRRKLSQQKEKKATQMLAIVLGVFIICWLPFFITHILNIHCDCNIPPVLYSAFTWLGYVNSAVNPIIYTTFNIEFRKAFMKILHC
Description: displacement of [3H]haloperidol from rat striatal membranes. The settings on record: Table 1, read-out: Displacement [3H]Haloperidol striatum: approximate KI. The text has this:
(§1) ^(f) Approximate KI (nM) for displacement of [3Hhaloperidol from rat
(§2) striatal and limbic forebrain membranes.
(In general: In a radioligand displacement assay an active substance lowers the binding of a labelled ligand.)

Assay [5] addresses T3, [3H]haloperidol binding, rat limbic forebrain membranes (Rattus norvegicus, UniProt P61169).
T3 construct: striatal and limbic forebrain membranes; from tissue; host or cells: rat limbic forebrain membranes
Description: displacement of [3H]haloperidol from rat limbic forebrain membranes. The settings on record: Table 1, read-out: Displacement [3H]Haloperidol limbic: approximate KI.
Excerpt: as §1, §2

[6] abbreviates: approximate ED50, Table 2, read-out: Antiapomorphine dog: approximate oral ED50 for inhibition of apomorphine-induced vomiting.
[7] abbreviates: approximate ED50, Table 2, read-out: Antiapomorphine rat: approximate oral ED50 for inhibition of apomorphine-induced gnawing.
Where [8] appears, read: approximate ED50, Table 1, read-out: Anti-apomorphine dog: approximate oral ED50 for inhibition of apomorphine-induced vomiting.
[9] abbreviates: approximate ED50, Table 1, read-out: Anti-apomorphine rat: approximate oral ED50 for inhibition of apomorphine-induced gnawing.
Where [10] appears, read: rat striatum, Table 1, read-out: Dopamine sensitive aden-cyclase: approximate KI.

T3 sequence (P61169 whole entry): as above

Consider `COc1cc(N)c([N+](=O)[O-])cc1C(=O)NC1CCN(CC2=CCC(C)=CC2)CC1` [compound 6, N-[1-(4-methylcyclohexa-1,4-dienyl)methylpiperid-4-yl]-2-methoxy-4-amino-5-nitrobenzamide], for which the ED50 in assay [1] (setting [6]) was under 0.05 mg/kg; in assay [2] (setting [7]), 35 mg/kg.

As for `CCOc1cc(N)c([N+](=O)[O-])cc1C(=O)NC1CCN(CC2=CCC(C)=CC2)CC1` [compound 5, N-[1-(4-methylcyclohexa-1,4-dienyl)methylpiperid-4-yl]-2-ethoxy-4-amino-5-nitrobenzamide], the median effective dose (ED50) was under 0.05 mg/kg in assay [1] (setting [6]) and 40 mg/kg in assay [2] (setting [7]).

Turning to `CCN(CC)CCNC(=O)c1cc(Cl)c(N)cc1OC` [Metoclopramide, reference compound], the median effective dose (ED50) is 0.45 mg/kg in assay [1] (setting [8]) and 13.6 mg/kg in assay [2] (setting [9]). This compound gave an inhibition constant Ki in assay [3] of 60 nM.

For the compound `COc1cc(N)c([N+](=O)[O-])cc1C(=O)NC1CCN(Cc2ccc(C)cc2)CC1` [N-(1-p-methylbenzylpiperid-4-yl)-2-methoxy-4-amino-5-nitrobenzamide], the 50% effective dose (ED50) in assay [1] (setting [8]) was under 0.05 mg/kg.

As to `CCN1CCCC1CNC(=O)c1cc(S(N)(=O)=O)ccc1OC` (stereo not drawn) [Sulpiride, reference compound], the 50% effective dose (ED50) in assay [1] (setting [8]) was 0.141 mg/kg; in assay [2] (setting [9]), over 800 mg/kg.

Regarding `CCOc1cc(N)c([N+](=O)[O-])cc1C(=O)NC1CCN(Cc2ccccc2)CC1` [EtO, NH2, NO2, H, phenyl, H, H, H, --, N-(1-benzylpiperid-4-yl)-2-ethoxy-4-amino-5-nitrobenzamide], the ED50 in assay [1] (setting [8]) was under 0.05 mg/kg.

For the compound `COc1cc(N)c(Cl)cc1C(=O)NC1CCN(Cc2ccccc2)CC1` [Clebopride hydrochloride, reference compound], the Ki in assay [4] stood at 25 nM; in assay [3] (setting [10]), 5 nM; in assay [5], 5 nM. The ED50 in assay [1] (setting [6]) was determined as 0.04 mg/kg; in assay [2] (setting [7]), 2.5 mg/kg.

As to `CCOc1cc(N)c([N+](=O)[O-])cc1C(=O)NC1CCN(CC2=CCC=CC2)CC1` [compound 4, N-(1-cyclohexa-1',4'-dienylmethylpiperid-4-yl)-2-ethoxy-4-amino-5-nitrobenzamide], the values for the ED50 in assay [1] (setting [6]) and in assay [2] (setting [7]) were under 0.05 mg/kg and 50 mg/kg, respectively.

On to `COc1cc(N)c([N+](=O)[O-])cc1C(=O)NC1CCN(CCc2ccccc2)CC1` [MeO, NH2, NO2, H, phenyl, H, H, H, CH2, N-(1-phenethylpiperid-4-yl)-2-methoxy-4-amino-5-nitrobenzamide], for which the Ki in assay [4] came out at 10 nM; in assay [3] (setting [10]) it was 1 nM; in assay [5], 1 nM. In addition, the 50% effective dose (ED50) is over 5 mg/kg in assay [1] (setting [8]) and 800 mg/kg in assay [2] (setting [9]).

Take `COc1cc(N)c([N+](=O)[O-])cc1C(=O)NC1CCN(CCC2=CCC=CC2)CC1` [compound 3, N-[1-(2-cyclohexa-1',4'-dienylethyl)piperid-4-yl]-2-methoxy-4-amino-5-nitrobenzamide]: the ED50 is over 0.5 mg/kg in assay [1] (setting [6]) and over 300 mg/kg in assay [2] (setting [7]).

For `COc1cc(N)c([N+](=O)[O-])cc1C(=O)NC1CCN(Cc2ccc(Cl)cc2)CC1` [N-(1-p-chlorobenzylpiperid-4-yl)-2-methoxy-4-amino-5-nitrobenzamide], the median effective dose (ED50) in assay [1] (setting [8]) is under 0.05 mg/kg.

Turning to `COc1cc(N)c([N+](=O)[O-])cc1C(=O)NC1CCN(Cc2ccccc2)CC1` [MeO, NH2, NO2, H, phenyl, H, H, H, --, N-(1-Benzylpiperid-4-yl)-2-methoxy-4-amino-5-nitrobenzamide], the Ki in assay [4] is 20 nM; in assay [3] (setting [10]), 5 nM; in assay [5], 1 nM. Also, the ED50 in assay [1] (setting [8]) is under 0.05 mg/kg; in assay [2] (setting [9]) it was 140 mg/kg.

In the case of `COc1cc(N)c([N+](=O)[O-])cc1C(=O)NC1CCN(CC2=CCC=CC2)CC1` [compound 2, N-(1-Cyclohexa-1',4'-dienylmethylpiperid-4-yl)-2-methoxy-4-amino-5-nitrobenzamide], the median effective dose (ED50) in assay [1] (setting [6]) is under 0.05 mg/kg; in assay [2] (setting [7]), 60 mg/kg.

The term ED50 denotes the dose that gives a 50% effect, or the effect in half of the subjects. Broadly, the Ki is the equilibrium dissociation constant of an inhibitor or competing ligand from its target.

(Values after US5026858A, “Piperidine derivative” (Walton S.A., priority 1976, dated 1991).)
